Measurements reported in patent US20190343908A1, “Therapeutic Combination for the Treatment of Cancer” (Nerium Biotechnology Inc., priority 2011, published 2019).

Tests used:
[1] = test system: T47D (human breast cancer); test: Methyl-Tetrazolium viability assay, T47D; type: cell-based; design: key: absorbance (optical density) at 570 nm, second wavelength subtracted
Description: (§1) Three different viability assays were chosen to complement each other and yielded results dependent on concentration and cell line: the Methyl Tetrazolium dye assay, the Sulforhodamine B fluorescent dye assay, and the Crystal Violet dye assay.
(§2) The Methyl-Tetrazolium dye assay measures the activity of enzymes in mitochondria. The dye precursor is taken up by cells, where it undergoes reduction to the purple formazan. It measures only the mitochondrial activity and, thus, it is not always a reliable indication of whether the cells themselves are alive or dead, since even a recently dead cell has […] enzyme activity in mitochondria. Intracellular glucose concentration, pH, and time before assay all affect the measurements.
(§3) The Methyl Tetrazolium, Sulforhodamine B, and Crystal Violet assays were used to assess cell viabilities. The incubation times were 24 hours, 48 hours, and 72 hours. The Nerium oleander extract Anvirzel™ (a hot water extract of oleander obtained from Salud Integral, Honduras) was tested in concentrations ranging from 0.01 ng/mL to 10 ng/mL.
(§4) Cells were detached by trypsinization (Trypsin-0.25% EDTA, Invitrogen, 25200-072) during the logarithmic phase of culture growth and plated in 96-well plates (18.000 cells/well) (Corning, Costar 359) in a final volume of 200 μl of medium per well. […] The absorbance was measured after 24 hours, 48 hours, and 72 hours of incubation.
(§5) For the Methyl-Tetrazolium assay, the dye (Sigma, M2128; 5 mg/mL, diluted in phosphate-buffered saline) was added to each well and plates were incubated for 3 hours at 37° C. After the end of the incubation period, the medium was discarded and the cells were rinsed with phosphate-buffered saline. Finally, the formazan crystals were dissolved in dimethylsulphoxide (Sigma, D4540).
(§6) The optical density of each plate was measured on a μQuant spectrophotometer and the data were analyzed with Gen5 software (μQuant Biomolecular Spectrophotometer MQX200 and Gen5™ Microplate Data Collection & Analysis software, BioTek® Instruments. Inc, April 2008). Absorbance was measured at 570 nm for all assays and a second wavelength was measured in order to subtract noise. For the Methyl-Tetrazolium assay this second wavelength was 630 nm and for the Sulforhodamine B and Crystal Violet assays it was 690 nm.

[2] = test system: A375 melanoma cancer cell line; test: Methyl-Tetrazolium viability assay, A375; type: cell-based, human; conditions: for ABSORBANCE: 0.1 μg/mL cisplatin; for Average absorbance, MTT 24 h / Average absorbance, MTT 48 h / Average absorbance, MTT 72 h: A375 Run 1
Description: as §1, §2, §3, §4, §5, §6

HT55 (colorectal cancer) = test: Methyl-Tetrazolium viability assay, HT55; type: cell-based, human; design: key: absorbance (optical density) at 570 nm, second wavelength subtracted
Description: as §1, §2, §3, §4, §5, §6

N.N.[Cl][Pt][Cl] [cisplatin]
MTT Average ([1]; T47D Run 1, 24 h, 0.1 μg/ml CDDP): 0.166
MTT Average ([1]; T47D Run 1, 24 h, 1 μg/ml CDDP): 0.033
MTT Average ([1]; T47D Run 1, 24 h, 10 μg/ml CDDP): 0.046
MTT Average ([1]; T47D Run 1, 24 h, 100 μg/ml CDDP): 0.045
MTT Average ([1]; T47D Run 1, 48 h, 1 μg/ml CDDP): 0.039
MTT Average ([1]; T47D Run 1, 48 h, 10 μg/ml CDDP): 0.044
MTT Average ([1]; T47D Run 1, 48 h, 100 μg/ml CDDP): 0.038
MTT Average ([1]; T47D Run 1, 72 h, 0.1 μg/ml CDDP): 0.336
MTT Average ([1]; T47D Run 1, 72 h, 1 μg/ml CDDP): 0.04
MTT Average ([1]; T47D Run 1, 72 h, 10 μg/ml CDDP): 0.05
MTT Average ([1]; T47D Run 1, 72 h, 100 μg/ml CDDP): 0.049
MTT Average ([1]; T47D Run 2, 24 h, 0.1 μg/ml CDDP): 0.181
MTT Average ([1]; T47D Run 2, 24 h, 1 μg/ml CDDP): 0.051
MTT Average ([1]; T47D Run 2, 24 h, 10 μg/ml CDDP): 0.07
MTT Average ([1]; T47D Run 2, 24 h, 100 μg/ml CDDP): 0.051
MTT Average ([1]; T47D Run 2, 48 h, 0.1 μg/ml CDDP): 0.262
MTT Average ([1]; T47D Run 2, 48 h, 1 μg/ml CDDP): 0.052
MTT Average ([1]; T47D Run 2, 48 h, 10 μg/ml CDDP): 0.066
MTT Average ([1]; T47D Run 2, 48 h, 100 μg/ml CDDP): 0.054
MTT Average ([1]; T47D Run 2, 72 h, 0.1 μg/ml CDDP): 0.397
MTT Average ([1]; T47D Run 2, 72 h, 1 μg/ml CDDP): 0.046
MTT Average ([1]; T47D Run 2, 72 h, 10 μg/ml CDDP): 0.041
MTT Average ([1]; T47D Run 2, 72 h, 100 μg/ml CDDP): 0.037
MTT Average ([1]; T47D Run 3, 24 h, 1 μg/ml CDDP): 0.033
MTT Average ([1]; T47D Run 3, 24 h, 10 μg/ml CDDP): 0.074
MTT Average ([1]; T47D Run 3, 24 h, 100 μg/ml CDDP): 0.047
MTT Average ([1]; T47D Run 3, 48 h, 0.1 μg/ml CDDP): 0.261
MTT Average ([1]; T47D Run 3, 48 h, 1 μg/ml CDDP): 0.047
MTT Average ([1]; T47D Run 3, 48 h, 10 μg/ml CDDP): 0.077
MTT Average ([1]; T47D Run 3, 48 h, 100 μg/ml CDDP): 0.051
MTT Average ([1]; T47D Run 3, 72 h, 0.1 μg/ml CDDP): 0.371
MTT Average ([1]; T47D Run 3, 72 h, 1 μg/ml CDDP): 0.035
MTT Average ([1]; T47D Run 3, 72 h, 10 μg/ml CDDP): 0.057
MTT Average ([1]; T47D Run 3, 72 h, 100 μg/ml CDDP): 0.035
ABSORBANCE ([2]; A375, 48 h): 0.332
ABSORBANCE ([2]; A375, 72 h): 0.479
Average absorbance, MTT 24 h ([2]; 0.1 μg/ml CDDP): 0.34
Average absorbance, MTT 48 h ([2]; 0.1 μg/ml CDDP): 0.332
Average absorbance, MTT 72 h ([2]; 0.1 μg/ml CDDP): 0.479
Average absorbance, MTT 24 h ([2]; 1 μg/ml CDDP): 0.068
Average absorbance, MTT 48 h ([2]; 1 μg/ml CDDP): 0.048
Average absorbance, MTT 72 h ([2]; 1 μg/ml CDDP): 0.042
Average absorbance, MTT 24 h ([2]; 10 μg/ml CDDP): 0.066
Average absorbance, MTT 48 h ([2]; 10 μg/ml CDDP): 0.044
Average absorbance, MTT 72 h ([2]; 10 μg/ml CDDP): 0.04
Average absorbance, MTT 24 h ([2]; 100 μg/ml CDDP): 0.049
Average absorbance, MTT 48 h ([2]; 100 μg/ml CDDP): 0.038
Average absorbance, MTT 72 h ([2]; 100 μg/ml CDDP): 0.036
Average absorbance MTT ([2]; A375 Run 2, 24 h, 0.1 μg/ml CDDP): 0.367
Average absorbance MTT ([2]; A375 Run 2, 24 h, 1 μg/ml CDDP): 0.047
Average absorbance MTT ([2]; A375 Run 2, 24 h, 10 μg/ml CDDP): 0.049
Average absorbance MTT ([2]; A375 Run 2, 24 h, 100 μg/ml CDDP): 0.031
Average absorbance MTT ([2]; A375 Run 2, 48 h, 0.1 μg/ml CDDP): 0.598
Average absorbance MTT ([2]; A375 Run 2, 48 h, 1 μg/ml CDDP): 0.046
Average absorbance MTT ([2]; A375 Run 2, 48 h, 10 μg/ml CDDP): 0.045
Average absorbance MTT ([2]; A375 Run 2, 48 h, 100 μg/ml CDDP): 0.048
Average absorbance MTT ([2]; A375 Run 2, 72 h, 0.1 μg/ml CDDP): 0.696
Average absorbance MTT ([2]; A375 Run 2, 72 h, 1 μg/ml CDDP): 0.049
Average absorbance MTT ([2]; A375 Run 2, 72 h, 10 μg/ml CDDP): 0.042
Average absorbance MTT ([2]; A375 Run 2, 72 h, 100 μg/ml CDDP): 0.038
Average absorbance MTT ([2]; A375 Run 3, 24 h, 0.1 μg/ml CDDP): 0.25
Average absorbance MTT ([2]; A375 Run 3, 24 h, 1 μg/ml CDDP): 0.052
Average absorbance MTT ([2]; A375 Run 3, 24 h, 10 μg/ml CDDP): 0.054
Average absorbance MTT ([2]; A375 Run 3, 24 h, 100 μg/ml CDDP): 0.01
Average absorbance MTT ([2]; A375 Run 3, 48 h, 0.1 μg/ml CDDP): 0.422
Average absorbance MTT ([2]; A375 Run 3, 48 h, 1 μg/ml CDDP): 0.041
Average absorbance MTT ([2]; A375 Run 3, 48 h, 10 μg/ml CDDP): 0.037
Average absorbance MTT ([2]; A375 Run 3, 48 h, 100 μg/ml CDDP): 0.036
Average absorbance MTT ([2]; A375 Run 3, 72 h, 0.1 μg/ml CDDP): 0.413
Average absorbance MTT ([2]; A375 Run 3, 72 h, 1 μg/ml CDDP): 0.026
Average absorbance MTT ([2]; A375 Run 3, 72 h, 10 μg/ml CDDP): 0.033
Average absorbance MTT ([2]; A375 Run 3, 72 h, 100 μg/ml CDDP): 0.031
MTT Average (HT55 (colorectal cancer); HT55, Run 1, 24 h, 0.1 μg/ml CDDP): 0.096
MTT Average (HT55 (colorectal cancer); HT55, Run 1, 24 h, 1 μg/ml CDDP): 0.02
MTT Average (HT55 (colorectal cancer); HT55, Run 1, 24 h, 10 μg/ml CDDP): 0.054
MTT Average (HT55 (colorectal cancer); HT55, Run 1, 24 h, 100 μg/ml CDDP): 0.019
MTT Average (HT55 (colorectal cancer); HT55, Run 1, 48 h, 0.1 μg/ml CDDP): 0.177
MTT Average (HT55 (colorectal cancer); HT55, Run 1, 48 h, 1 μg/ml CDDP): 0.015
MTT Average (HT55 (colorectal cancer); HT55, Run 1, 48 h, 10 μg/ml CDDP): 0.03
MTT Average (HT55 (colorectal cancer); HT55, Run 1, 48 h, 100 μg/ml CDDP): 0.012
MTT Average (HT55 (colorectal cancer); HT55, Run 1, 72 h, 0.1 μg/ml CDDP): 0.315
MTT Average (HT55 (colorectal cancer); HT55, Run 1, 72 h, 1 μg/ml CDDP): 0.025
MTT Average (HT55 (colorectal cancer); HT55, Run 1, 72 h, 10 μg/ml CDDP): 0.026
MTT Average (HT55 (colorectal cancer); HT55, Run 1, 72 h, 100 μg/ml CDDP): 0.017
MTT Average (HT55 (colorectal cancer); HT55 Run 2, 24 h, 0.1 μg/ml CDDP): 0.215
MTT Average (HT55 (colorectal cancer); HT55 Run 2, 24 h, 1 μg/ml CDDP): 0.023
MTT Average (HT55 (colorectal cancer); HT55 Run 2, 24 h, 10 μg/ml CDDP): 0.053
MTT Average (HT55 (colorectal cancer); HT55 Run 2, 24 h, 100 μg/ml CDDP): 0.018
MTT Average (HT55 (colorectal cancer); HT55 Run 2, 48 h, 0.1 μg/ml CDDP): 0.381
MTT Average (HT55 (colorectal cancer); HT55 Run 2, 48 h, 1 μg/ml CDDP): 0.028
MTT Average (HT55 (colorectal cancer); HT55 Run 2, 48 h, 10 μg/ml CDDP): 0.031
MTT Average (HT55 (colorectal cancer); HT55 Run 2, 48 h, 100 μg/ml CDDP): 0.025
MTT Average (HT55 (colorectal cancer); HT55 Run 2, 72 h, 0.1 μg/ml CDDP): 0.488
MTT Average (HT55 (colorectal cancer); HT55 Run 2, 72 h, 1 μg/ml CDDP): 0.032
MTT Average (HT55 (colorectal cancer); HT55 Run 2, 72 h, 10 μg/ml CDDP): 0.028
MTT Average (HT55 (colorectal cancer); HT55 Run 2, 72 h, 100 μg/ml CDDP): 0.021
MTT Average (HT55 (colorectal cancer); HT55 Run 3, 24 h, 0.1 μg/ml CDDP): 0.205
MTT Average (HT55 (colorectal cancer); HT55 Run 3, 24 h, 1 μg/ml CDDP): 0.035
MTT Average (HT55 (colorectal cancer); HT55 Run 3, 24 h, 10 μg/ml CDDP): 0.206
MTT Average (HT55 (colorectal cancer); HT55 Run 3, 24 h, 100 μg/ml CDDP): 0.028
MTT Average (HT55 (colorectal cancer); HT55 Run 3, 48 h, 0.1 μg/ml CDDP): 0.331
MTT Average (HT55 (colorectal cancer); HT55 Run 3, 48 h, 1 μg/ml CDDP): 0.04
MTT Average (HT55 (colorectal cancer); HT55 Run 3, 48 h, 10 μg/ml CDDP): 0.361
MTT Average (HT55 (colorectal cancer); HT55 Run 3, 48 h, 100 μg/ml CDDP): 0.038
MTT Average (HT55 (colorectal cancer); HT55 Run 3, 72 h, 0.1 μg/ml CDDP): 0.359
MTT Average (HT55 (colorectal cancer); HT55 Run 3, 72 h, 1 μg/ml CDDP): 0.032
MTT Average (HT55 (colorectal cancer); HT55 Run 3, 72 h, 10 μg/ml CDDP): 0.353
MTT Average (HT55 (colorectal cancer); HT55 Run 3, 72 h, 100 μg/ml CDDP): 0.031
